Assay results reported in US12077503B2, “Substituted cyclic amides and their use as herbicides” (FMC CORPORATION, priority 2015, dated 2024).
Like-named read-outs stand apart in the source and are kept apart here.

Experiments:
Assay type in all cases: in vivo
[1] = test system: barnyardgrass (Echinochloa crus-galli); experiment: Test B flooded paddy test; details: Echinochloa crus-galli, Flood, 250 g ai/ha
Summary of the method: (§1)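 Compound goes directly into floodwater once pots are flooded 3 cm above soil, targeting plants at two leaves; the water depth is then held for the test duration. Plants sit 13–15 d in a greenhouse and are rated visually, 100 denoting complete control.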

[2] = test system: sedge, umbrella (small-flower umbrella sedge, Cyperus difformis); experiment: Test B flooded paddy test; details: Cyperus difformis, Flood, 250 g ai/ha
Summary of the method: as §1

[3] = test system: ducksalad (Heteranthera limosa); experiment: Test B flooded paddy test; details: Heteranthera limosa, Flood, 250 g ai/ha
Summary of the method: as §1

rice (Oryra sativa) = experiment: Test B flooded paddy test; details: Oryza sativa, Flood, 250 g ai/ha
Summary of the method: as §1

[4] = test system: ryegrass, Italian (Italian ryegrass, Lolium multiflorum); experiment: Test A postemergence; details: Lolium multiflorum, post-emergence, 240 h; for pest or weed control at 125 g/ha: 125 g ai/ha; for pest or weed control at 500 g/ha: 500 g ai/ha
Summary of the method: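 Visual injury, scored on a 0–100 scale relative to untreated controls, was recorded about 10 d after application. Treatments were a preemergence soil spray over planted seeds or a postemergence spray on plants at the one- to two-leaf stage, 2 to 10 cm tall, all in loam soil–sand blend in the greenhouse.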

[5] = scale of 0 to 100 where 0 is no effect and 100 is complete control, read-out: Barnyardgrass plant response rating
[6] = scale of 0 to 100 where 0 is no effect and 100 is complete control, read-out: Sedge, Umbrella plant response rating
[7] = scale of 0 to 100 where 0 is no effect and 100 is complete control, read-out: Ducksalad plant response rating
[8] = scale of 0 to 100 where 0 is no effect and 100 is complete control, read-out: Rice plant response rating
[9] = postemergence, visual injury rating after approximately 10 d, read-out: Ryegrass, Italian plant response rating (0 to 100 scale, 0 no effect, 100 complete control)
[10] = 360 h, visually evaluated after 13 to 15 d, read-out: Plant response rating, Sedge, Umbrella (0 to 100 scale where 0 is no effect and 100 is complete control)
[11] = Postemergence, visual rating about 10 d after treatment, read-out: Ryegrass, Italian plant response rating (0 to 100 scale)
[12] = Postemergence, visual injury, 0 to 100 scale (0 no effect, 100 complete control), approx. 10 d, read-out: Plant response rating, Ryegrass, Italian
[13] = 0 to 100 scale where 0 is no effect and 100 is complete control, read-out: Barnyardgrass plant response rating
[14] = 0 to 100 scale where 0 is no effect and 100 is complete control, read-out: Sedge, Umbrella plant response rating
[15] = 0 to 100 scale where 0 is no effect and 100 is complete control, read-out: Ducksalad plant response rating
[16] = 0 to 100 scale where 0 is no effect and 100 is complete control, read-out: Rice plant response rating
[17] = postemergence, 0 to 100 scale, 0 is no effect, 100 is complete control, read-out: Ryegrass, Italian plant response rating
[18] = postemergence, visual injury after approximately 10 d, 0 to 100 scale (0 no effect, 100 complete control), read-out: Plant response rating, Ryegrass, Italian
[19] = postemergence, visual injury vs untreated controls after approx. 10 d, 0 = no effect, 100 = complete control, read-out: Ryegrass, Italian plant response rating (0 to 100 scale)

| Structure (SMILES) | pest or weed control at 250 g/ha [1, 5] [%] | pest or weed control at 250 g/ha [2, 6] [%] | pest or weed control at 250 g/ha [3, 7] [%] | pest or weed control at 250 g/ha (rice (Oryra sativa); [8]) [%] | pest or weed control at 250 g/ha [1, 13] [%] | pest or weed control at 250 g/ha [3, 15] [%] | pest or weed control at 250 g/ha (rice (Oryra sativa); [16]) [%] | pest or weed control at 125 g/ha [4, 18] [%] | also measured |
| --- | --- | --- | --- | --- | --- | --- | --- | --- | --- |
| CN1C[C@H](c2cccc(C3CC3)c2)[C@@H](C(=O)Nc2ccccc2F)C1=O [Compound 815] | 65 | 0 | 75 | 20 |  |  |  |  | pest or weed control at 125 g/ha [4, 9]: 60% |
| CN1C[C@H](c2ccc(C(F)(F)F)cc2)[C@@H](C(=O)Nc2cccc(F)c2C#N)C1=O [Compound 1380] |  |  |  |  |  |  |  |  | pest or weed control at 250 g/ha ([1]; 360 h, visually evaluated after 13 to 15 d, read-out: Plant response rating, Barnyardgrass (0 to 100 scale where 0 is no effect and 100 is complete control)): 60%; pest or weed control at 250 g/ha [2, 10]: 0%; pest or weed control at 250 g/ha ([3]; 360 h, visually evaluated after 13 to 15 d, read-out: Plant response rating, Ducksalad (0 to 100 scale where 0 is no effect and 100 is complete control)): 100%; pest or weed control at 250 g/ha (rice (Oryra sativa); 360 h, visually evaluated after 13 to 15 d, read-out: Plant response rating, Rice (0 to 100 scale where 0 is no effect and 100 is complete control)): 0%; pest or weed control at 125 g/ha [4, 11]: 50%; pest or weed control at 500 g/ha [4, 12]: 60% |
| CN1C[C@H](c2csc3ccccc23)[C@@H](C(=O)Nc2ccccc2F)C1=O [Compound 1114] |  |  |  |  | 45 | 85 | 0 |  | pest or weed control at 250 g/ha [2, 14]: 0%; pest or weed control at 125 g/ha ([4]; postemergence, visual injury on 0 to 100 scale (0 no effect, 100 complete control), approx. 10 d, read-out: Ryegrass, Italian plant response rating): 0%; pest or weed control at 500 g/ha [4, 17]: 40% |
| Cc1ccc(NC(=O)[C@H]2C(=O)N(C)C[C@@H]2c2cc(F)cc(F)c2)c(F)c1 [Compound 760] | 50 | 0 | 80 | 0 |  |  |  | 0 |  |
| CSc1ccccc1NC(=O)[C@H]1C(=O)N(C)CC[C@@H]1c1cccc(OC(F)(F)F)c1 [Compound 809] | 0 | 0 | 0 | 0 |  |  |  |  | pest or weed control at 125 g/ha [4, 9]: 0%; pest or weed control at 31 g/ha ([4]; Postemergence, 31 g ai/ha, visual injury after approx. 10 d, 0 to 100 scale, 0 no effect, 100 complete control, read-out: Plant response rating, Ryegrass, Italian): 0% |
| O=C1NC[C@H](c2csc3ccccc23)[C@H]1C(=O)Nc1ccccc1F [Compound 750] | 0 | 0 | 90 | 0 |  |  |  | 0 |  |
| Cc1ccc([C@H]2CN(C)C(=O)[C@@H]2C(=O)Nc2ccccc2S(C)(=O)=O)cc1C [Compound 734] | 60 | 0 | 100 | 0 |  |  |  | 20 |  |
| O=C1NC[C@H](c2cccc(C(F)(F)F)c2)C1C(=O)Nc1c(F)cccc1CO (stereo partly shown) [Compound 1240] |  |  |  |  | 0 | 0 | 0 |  | pest or weed control at 250 g/ha [2, 14]: 0%; pest or weed control at 125 g/ha [4, 19]: 0%; pest or weed control at 500 g/ha [4, 17]: 0% |
| O=C1NC[C@H](c2ccc(OC(F)F)cc2)[C@H]1C(=O)Nc1ccc(F)cc1F [Compound 1325] |  |  |  |  | 15 | 100 | 0 |  | pest or weed control at 250 g/ha [2, 10]: 0%; pest or weed control at 125 g/ha [4, 11]: 0%; pest or weed control at 500 g/ha [4, 12]: 0% |
| COc1cc([C@H]2CN(C)C(=O)[C@@H]2C(=O)Nc2ccccc2SC)ccc1C(F)(F)F [Compound 769] | 0 | 0 | 80 | 15 |  |  |  | 30 |  |
| CCc1ccc([C@H]2CNC(=O)[C@@H]2C(=O)Nc2c(F)cccc2F)cc1 [Compound 1248] |  |  |  |  | 15 | 70 | 0 |  | pest or weed control at 250 g/ha [2, 14]: 0%; pest or weed control at 125 g/ha [4, 19]: 0%; pest or weed control at 500 g/ha [4, 12]: 0% |
